Source: ChEMBL document CHEMBL5370560, “Isolation of Anti-SARS-CoV-2 Natural Products Extracted from Mentha canadensis and the Semi-synthesis of Antiviral Derivatives” (J Nat Prod, 2023)

Target: Replicase polyprotein 1ab (Severe acute respiratory syndrome coronavirus 2, UniProt P0DTD1)
Experiment: Inhibition of recombinant SARS-CoV-2 Delta 3CL protease using Dabcyl-KTSAVLQSGFRKME-Edans as substrate preincubated for 30 mins followed by substrate addition and measured for 1 hr by fluorescence based microplate reader analysis

Compound	IC50 [µM]
CCCCCCCCCCCCNC(=O)[C@@H](Cc1ccc(O)c(O)c1)OC(=O)/C=C/c1ccc(O)c(O)c1	40.8
CCc1cccc(NC(=O)[C@@H](Cc2ccc(O)c(O)c2)OC(=O)/C=C/c2ccc(O)c(O)c2)c1	45.7
